Test results taken from patent publication US9844535B2, “SHP2 inhibitors and methods of treating autoimmune and/or glomerulonephritis-associated diseases using SHP2 inhibitors” (Indiana University Research and Technology Corporation, priority 2013, dated 2017).

Legend:
[1] = test system: ERK and AKT signaling; test: Immunoblot of ERK/AKT signaling in tissue lysates of inhibitor-treated MRL/lpr mice; assay type: in vivo, mouse; settings: 7.5 mg/kg daily for 4 weeks
Procedure: Briefly, female MRL/MpJ-fas lpr (MRL/lpr), MRL/Mpj and C57BL/6J mice were purchased from the Jackson Laboratory (Bar Harbor, Me.). For experiments, mice within each group were ip injected with either vehicle (DMSO) or the SHP2 inhibitor (7.5 mg/kg/per day). […] Body weight was measured daily and treatment dosage was adjusted accordingly. At the end of the treatment period, mice were sacrificed with CO2 exsanguination and SLE targeted organs were removed. For each mouse, spleen, kidney, and heart weight were calculated. In addition, total animal body weight and tibia length were measured. Peripheral blood/serum was also collected for use in the cytokine assays described below.
Tissues (spleen, kidney, heart) isolated from either vehicle (DMSO) treated or SHP2 inhibitor treated WT C57/B16, MRL/MpJ, or MRL/lpr female mice were dissected, perfused in PBS, and immediately frozen in liquid N2. Whole-cell lysates were prepared by homogenizing the tissue in radioimmunoprecipitation (RIPA) buffer (25 mmol/l Tris-HCl [pH 7.4], 150 mmol/l NaCl, 0.1% SDS, 1% NP-40, 0.5% sodium deoxycholate, 5 mmol/l EDTA, 1 mmol/l NaF, 1 mmol/l sodium orthovanadate, and a protease cocktail) at 4° C., followed by clarification at 14,000 g. […] Bands were visualized with enhanced chemiluminescence and quantified by densitometry (developed by Wayne Rasband; ImageJ 1.41 software, http://rsbweb.nih.gov/ij/). […]

[2] = test system: serum IgG and anti dsDNA IgG; test: Serum IgG and anti-dsDNA IgG ELISA; assay type: in vivo, mouse; settings: SLE mice serum
Excerpt: ELISA assays were used to detect for the presence of various cytokines in mouse serum isolated from vehicle or drug-treated animals or from medium supernatant isolated from tissue cell cultures as described above. In addition, ELISA was also used to detect total IgG and dsDNA IgG from mouse serum and for the assay to detect urine albumin and creatinine levels. ELISA detection kits for mouse cytokines IL-6 and TNFα were purchased from eBioscience, mouse cytokines IL-17A, IFNγ, and human IFNγ were purchased from Biolegend, kits for the albumin and creatinine were purchased from Exocell, and kits for the serum IgG and anti-dsDNA IgG were purchased from Alpha Diagnostic (San Antonio, Tex.). ELISAs were all performed according to the manufacturer's instructions.
Serum IgG and anti-dsDNA IgG: 100 μl of 1:50000× diluted serum for IgG and 100 μl of 1:20000× diluted serum for dsDNA IgG were used and loaded onto a precoated 96-well plate in duplicate for 1 hour at room temperature. […] The OD of the wells was determined using a microplate reader set at a wavelength of 450 nm.
In this Example, the effect of the SHP2 inhibitor, L97M74, on the onset of SLE disease progression was evaluated by measuring the levels of auto antibodies in SLE inhibitor-treated versus vehicle-treated mice through detection anti-histone antibodies and anti-IgG by ELISA.

With Cn1c(-c2cccc(NC(=O)C(=O)Nc3ccc(-c4ccsc4)cc3)c2)c(I)c2cc(C(=O)O)c(O)cc21 [11a-1] the “downstream ERK and AKT signaling in tissue lysates” value [1] was “reversed aberrant downstream ERK and AKT signaling”, the “levels of IgG” value [2] was “not reduced” and the “levels of double-stranded DNA (anti dsDNA IgG)” value [2] was “not reduced”.
